# Experimental data reported in patent publication US20200278355A1, “CONJUGATED PROTEINS AND USES THEREOF” (THE SCRIPPS RESEARCH INSTITUTE, priority 2017, published 2020).
# Legend:
# Assay type in all cases: cell-based
# [1] = target: T1, TXNRD1 (Homo sapiens, UniProt Q16881); experiment: ABPP-SILAC BPK-29yne competition in H460 cells: TXNRD1; details: 20 μM
# T1 construct: endogenous in cells; host or cells: H460
# Method: (§1) Isotopically labeled H460 cell lines were generated as described above. Light and heavy cells were treated with compounds (20 μM) or DMSO, respectively, for 3 h, followed by labeling with the BPK-29yne (5 μM) for 30 min. Cells were washed once ice-cold PBS and lysed in 1% Triton 100-X dissolved in PBS with protease inhibitors (Sigma) by sonication. Lysate was adjusted to 1.5 mg ml^−1 in 500 μL. Samples were conjugated by CuAAC to Biotin-PEG4-azide (5 μL of 10 mM stocks in DMSO, final concentration=100 μM). CuAAC “click” mix contained TCEP, TBTA ligand and CuSO4 as detailed for isoTOP-ABPP sample preparation. Samples were further processed as detailed in: isoTOP-ABPP streptavidin enrichment and isoTOP-ABPP trypsin TEV digestion with the following exception: after overnight incubation at 37° C. with trypsin, tryptic digests were separated from the beads with Micro Bio-Spin columns (Bio-Rad) by centrifugation (1,000×g, 1 min). Beads were rinsed once with water (200 μL) and combined with tryptic digests. […]
# (§2) The MS2 spectra data were extracted and searched using RAW Convertor and ProLuCID algorithm as described in isoTOP-ABPP peptide and protein quantification. […] Ratios of heavy/light (DMSO/test compound) peaks were calculated using in-house CIMAGE software. […] The mean R values and standard deviation for multiple biological experiments were calculated from the average ratios from each replicate. […]
# [2] = target: T2, FLAG-NR0B1 (WT) (Homo sapiens, UniProt P51843); experiment: Gel-based BPK-29yne labeling of NR0B1 and competition in HEK293T cells; details: 3 h pre-treatment, then BPK-29yne 30 min
# T2 construct: expressed in transfected cells; host or cells: HEK-293T, transient, pRK5-based vector
# Method: 4×10^6 HEK-293T cells were seeded in poly-L-lysine coated 10 cm plates and transfected the next day with 5 μg of FLAG-NR0B1, FLAG-NR0B1-C274V, or FLAG-METAP2 cDNA in a pRK5-based expression vector. 48 h after transfection, cells were treated with indicated concentrations of BPK-29 or control compound BPK-27 for 3 h at 37° C. in DMEM containing 10% FBS and supplements as described in Cell Culture. BPK-29yne (5 μM) was then added and incubated for an additional 30 min at 37° C. FLAG immunoprecipitates were prepared as described above and following washes, the FLAG resin was resuspended in PBS (100 μL). To each sample, 12 μL of a freshly prepared “click” reagent mixture was added to conjugate the fluorophore to probe-labeled proteins. […] Samples were boiled for 5 min and proteins were resolved by SDS-PAGE (10% acrylamide), and visualized by in-gel fluorescence on a Bio-Rad ChemiDoc MP flatbed fluorescence scanner. Samples were also analyzed by immunoblotting. Recombinantly expressed FLAG-tagged protein levels were determined with the FLAG antibody (Sigma). Gel fluorescence and imaging was processed using Image Lab (v 5.2.1) software.
# [3] = target: T3, PTGES2 (Homo sapiens, UniProt Q9H7Z7); experiment: ABPP-SILAC BPK-29yne competition in H460 cells: PTGES2; details: 20 μM
# T3 construct: Isotopically labeled H460 cell lines were generated as described above; endogenous in cells; host or cells: H460 (SILAC-labelled)
# Method: as §1, §2
# T2 sequence (P51843 whole entry): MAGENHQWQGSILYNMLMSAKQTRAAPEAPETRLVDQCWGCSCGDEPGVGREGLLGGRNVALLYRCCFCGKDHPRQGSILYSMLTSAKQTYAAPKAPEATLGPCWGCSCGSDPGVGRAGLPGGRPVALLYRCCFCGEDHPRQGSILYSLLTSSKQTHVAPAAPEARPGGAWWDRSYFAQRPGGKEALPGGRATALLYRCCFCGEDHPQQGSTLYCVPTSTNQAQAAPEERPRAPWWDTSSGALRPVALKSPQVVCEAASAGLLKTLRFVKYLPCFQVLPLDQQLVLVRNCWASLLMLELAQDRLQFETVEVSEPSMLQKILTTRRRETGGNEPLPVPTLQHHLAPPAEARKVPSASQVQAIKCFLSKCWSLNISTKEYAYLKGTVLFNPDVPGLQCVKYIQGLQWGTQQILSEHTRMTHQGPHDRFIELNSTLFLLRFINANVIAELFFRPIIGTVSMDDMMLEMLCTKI
# T1 sequence (Q16881 whole entry): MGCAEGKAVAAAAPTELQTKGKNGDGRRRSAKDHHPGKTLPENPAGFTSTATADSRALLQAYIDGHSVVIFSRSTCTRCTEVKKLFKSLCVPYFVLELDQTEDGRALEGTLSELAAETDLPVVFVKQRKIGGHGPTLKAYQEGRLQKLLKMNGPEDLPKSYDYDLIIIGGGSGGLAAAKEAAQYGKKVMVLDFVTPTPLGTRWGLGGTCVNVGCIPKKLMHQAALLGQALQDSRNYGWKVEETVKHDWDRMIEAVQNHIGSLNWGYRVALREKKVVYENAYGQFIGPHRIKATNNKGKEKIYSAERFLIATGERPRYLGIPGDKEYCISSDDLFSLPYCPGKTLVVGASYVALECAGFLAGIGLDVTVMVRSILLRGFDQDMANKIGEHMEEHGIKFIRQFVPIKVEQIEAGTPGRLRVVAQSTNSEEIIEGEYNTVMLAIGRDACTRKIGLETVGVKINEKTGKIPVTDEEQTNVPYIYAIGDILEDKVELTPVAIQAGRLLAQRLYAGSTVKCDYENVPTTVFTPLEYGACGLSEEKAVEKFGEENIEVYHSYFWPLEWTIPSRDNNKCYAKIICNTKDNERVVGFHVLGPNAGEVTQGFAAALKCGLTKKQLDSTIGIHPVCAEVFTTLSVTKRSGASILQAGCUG
# T3 sequence (Q9H7Z7 whole entry): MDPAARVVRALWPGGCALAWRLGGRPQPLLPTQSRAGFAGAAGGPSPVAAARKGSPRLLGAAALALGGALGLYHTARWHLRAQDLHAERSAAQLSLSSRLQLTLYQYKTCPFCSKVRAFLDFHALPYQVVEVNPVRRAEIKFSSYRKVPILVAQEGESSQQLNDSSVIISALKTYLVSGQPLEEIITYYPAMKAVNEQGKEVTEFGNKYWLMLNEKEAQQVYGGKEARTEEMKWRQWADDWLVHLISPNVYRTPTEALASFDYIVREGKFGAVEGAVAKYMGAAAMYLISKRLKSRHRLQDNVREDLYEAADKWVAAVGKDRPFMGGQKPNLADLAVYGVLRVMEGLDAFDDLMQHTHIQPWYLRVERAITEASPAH
compound,measurement,setting,value
"O=C(c1ccc(N2CCOCC2)cc1)N1CCCC(N(Cc2ccccc2)C(=O)CCl)CC1 (stereo not drawn) [BPK-29, N-benzyl-2-chloro-N-(1-(4-morpholinobenzoyl)azepan-4-yl)acetamide]",BPK-29-competed BPK-29yne analysis,[1],Yes (Competed defined as showing R value ≥ 2.5 at 20 μM of test compound)
same,blockade of BPK-29yne labeling of NR0B1 by pre-treatment,[2],blocked by pre-treatment with BPK-29 in a concentration dependent manner
same,BPK-29-competed BPK-29yne analysis,[3],Yes (Competed defined as showing R value ≥ 2.5 at 20 μM of test compound)
